Source: patent US20240279202A1 (NURIX THERAPEUTICS, INC., priority 2021, published 2024)

Biological target: T1, ITK (Homo sapiens, UniProt Q08881)
T1 sequence (Q08881 1-620): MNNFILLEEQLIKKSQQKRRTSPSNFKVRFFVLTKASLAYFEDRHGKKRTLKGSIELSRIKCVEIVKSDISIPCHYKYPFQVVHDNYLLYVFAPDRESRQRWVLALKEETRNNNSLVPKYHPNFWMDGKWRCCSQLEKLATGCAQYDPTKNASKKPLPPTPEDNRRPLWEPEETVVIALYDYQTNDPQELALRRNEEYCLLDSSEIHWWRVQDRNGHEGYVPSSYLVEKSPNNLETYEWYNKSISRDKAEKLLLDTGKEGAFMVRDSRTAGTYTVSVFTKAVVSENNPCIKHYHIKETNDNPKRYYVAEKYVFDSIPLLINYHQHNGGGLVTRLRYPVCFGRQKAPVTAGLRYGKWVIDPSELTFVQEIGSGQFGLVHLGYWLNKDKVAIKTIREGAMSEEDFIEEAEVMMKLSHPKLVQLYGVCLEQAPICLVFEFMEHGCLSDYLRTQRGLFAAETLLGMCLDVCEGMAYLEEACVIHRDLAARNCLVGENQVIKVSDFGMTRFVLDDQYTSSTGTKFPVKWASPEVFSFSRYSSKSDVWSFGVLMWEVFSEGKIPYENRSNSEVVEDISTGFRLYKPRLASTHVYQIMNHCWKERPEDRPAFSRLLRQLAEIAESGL
Assay: ITK degradation HiBiT assay
Type: cell-based
Parameters: expressed in transfected cells; host or cells: Molt4 (ATCC CRL-1552), monoclonal clone 1C10, engineered to carry the HiBiT tag
Conditions: 4 hrs; for Dmax: MOLT-4, C-terminal HiBiT-tagged Molt4 cells
Summary of the method: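 C-terminal HiBiT-tagged Molt4 cells (clone 1C10) treated 4 h at 32° C with an 11-point, 5-fold compound dilution series (0.5% DMSO). HiBiT lytic detection with LgBiT then luminescence read; % ITK remaining versus concentration fit by four-parameter variable-slope model to give DC50 and Dmax.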

[1] = C-terminal HiBiT-tagged Molt4 cells

Compound | DC50 [1] [nM] | HiBiT DMax (%) [1] [%] | Dmax [%]
C[C@@]12Cc3[nH]nc(C(=O)Nc4cnn(C5CCN(CC6CCN(c7ccc([C@@H]8CCC(=O)NC8=O)cc7)CC6)CC5)c4)c3C[C@@H]1C2(F)F [Compound 116, (4aS,5aR)-N-(1-{1-[(1-{4-[(3S)-2,6-dioxopiperidin-3-yl]phenyl}piperidin-4-yl)methyl]piperidin-4-yl}-1H-pyrazol-4-yl)-5,5-difluoro-5a-methyl-1H,4H,4aH,5H,5aH,6H-cyclopropa[f]indazole-3-carboxamide] | 0.9 | 89 | –
C[C@@]12Cc3[nH]nc(C(=O)Nc4cnn(C5CCN(CC6CCN(c7ccc([C@H]8CCC(=O)NC8=O)cc7F)CC6)CC5)c4)c3C[C@@H]1C2(F)F [Compound 118, (4aS,5aR)-N-(1-{1-[(1-{4-[(3R)-2,6-dioxopiperidin-3-yl]-2-fluorophenyl}piperidin-4-yl)methyl]piperidin-4-yl}-1H-pyrazol-4-yl)-5,5-difluoro-5a-methyl-1H,4H,4aH,5H,5aH,6H-cyclopropa[f]indazole-3-carboxamide] | 0.467 | – | 77
CC1(C)CCc2c(C(=O)Nc3cnn(C4CCN(CC5CCN(c6ccc([C@@H]7CCC(=O)NC7=O)cc6)CC5)CC4)c3)n[nH]c2C1 [Compound 121, N-(1-{1-[(1-{4-[(3S)-2,6-dioxopiperidin-3-yl]phenyl}piperidin-4-yl)methyl]piperidin-4-yl}-1H-pyrazol-4-yl)-6,6-dimethyl-4,5,6,7-tetrahydro-1H-indazole-3-carboxamide] | 2.03 | – | 76
C[C@@]12Cc3[nH]nc(C(=O)Nc4cnn(C5CCC(CN6CCC(Oc7ccc(C8CCC(=O)NC8=O)cn7)CC6)CC5)c4)c3C[C@@H]1C2(F)F (stereo partly drawn) [Compound 124, (4aS,5aR)-5,5-difluoro-5a-methyl-N-{1-[(1rs,4rs)-4-{[4-({5-[(3R)-2,6-dioxopiperidin-3-yl]pyridin-2-yl}oxy)piperidin-1-yl]methyl}cyclohexyl]-1H-pyrazol-4-yl}-1H,4H,4aH,5H,5aH,6H-cyclopropa[f]indazole-3-carboxamide] | 3.7 | – | 90
C[C@@H]1CN(C(=O)c2ccc3cc(-c4n[nH]c5c4CCC(C)(C)C5)[nH]c3c2)CCN1CC1CCN(c2ccc(C3CCC(=O)NC3=O)cn2)CC1 (stereo partly drawn) [Compound 129, 3-(6-(4-(((R)-4-(2-(6,6-dimethyl-4,5,6,7-tetrahydro-1H-indazol-3-yl)-1H-indole-6-carbonyl)-2-methylpiperazin-1-yl)methyl)piperidin-1-yl)pyridin-3-yl)piperidine-2,6-dione] | 4.9 | – | 81
C[C@H]1CN(CC2CCN(c3ccc(C4CCC(=O)NC4=O)cn3)CC2)CCN1C(=O)c1ccc2cc(-c3n[nH]c4c3CCC(C)(C)C4)[nH]c2c1 (stereo partly drawn) [Compound 130, 3-(6-(4-(((S)-4-(2-(6,6-dimethyl-4,5,6,7-tetrahydro-1H-indazol-3-yl)-1H-indole-6-carbonyl)-3-methylpiperazin-1-yl)methyl)piperidin-1-yl)pyridin-3-yl)piperidine-2,6-dione] | 5.5 | – | 85
C[C@H]1CN(C(=O)c2ccc3cc(-c4n[nH]c5c4CCC(C)(C)C5)[nH]c3c2)CCN1CC1CCN(c2ccc(C3CCC(=O)NC3=O)cn2)CC1 (stereo partly drawn) [Compound 131, 3-(6-(4-(((S)-4-(2-(6,6-dimethyl-4,5,6,7-tetrahydro-1H-indazol-3-yl)-1H-indole-6-carbonyl)-2-methylpiperazin-1-yl)methyl)piperidin-1-yl)pyridin-3-yl)piperidine-2,6-dione] | 0.5 | – | 84
C[C@@H]1CN(CC2CCN(c3ccc(C4CCC(=O)NC4=O)cn3)CC2)CCN1C(=O)c1ccc2cc(-c3n[nH]c4c3CCC(C)(C)C4)[nH]c2c1 (stereo partly drawn) [Compound 132, 3-(6-(4-(((R)-4-(2-(6,6-dimethyl-4,5,6,7-tetrahydro-1H-indazol-3-yl)-1H-indole-6-carbonyl)-3-methylpiperazin-1-yl)methyl)piperidin-1-yl)pyridin-3-yl)piperidine-2,6-dione] | 7 | – | 82
CC1(C)CCc2c(-c3cc4ccc(C(=O)N5CCN(CC6CCN(c7ccc(C8CCC(=O)NC8=O)cn7)CC6)C(C)(C)C5)cc4[nH]3)n[nH]c2C1 (stereo not shown) [Compound 133, 3-(6-(4-((4-(2-(6,6-dimethyl-4,5,6,7-tetrahydro-1H-indazol-3-yl)-1H-indole-6-carbonyl)-2,2-dimethylpiperazin-1-yl)methyl)piperidin-1-yl)pyridin-3-yl)piperidine-2,6-dione] | 1.6 | – | 86
C[C@@]12Cc3[nH]nc(-c4cc5ccc(C(=O)N6CCN(CC7CCN(c8ccc(C9CCC(=O)NC9=O)cc8)CC7)CC6)cc5[nH]4)c3C[C@@H]1C2(F)F (stereo partly drawn) [Compound 135, 3-(4-(4-((4-(2-((4aS,5aR)-5,5-difluoro-5a-methyl-1,4,4a,5,5a,6-hexahydrocyclopropa[f]indazol-3-yl)-1H-indole-6-carbonyl)piperazin-1-yl)methyl)piperidin-1-yl)phenyl)piperidine-2,6-dione] | < 0.01 | – | 85

Next, values leading:

DC50 [1] [nM] | HiBiT DMax (%) [1] [%] | Dmax [%] | Compound
0.45 | – | 80 | CC1(C)CCc2c(-c3cc4cc(F)c(C(=O)N5CCN(CC6CCN(c7ccc(C8CCC(=O)NC8=O)cn7)CC6)CC5)cc4[nH]3)n[nH]c2C1 (stereo not shown) [Compound 136, 3-(6-(4-((4-(2-(6,6-dimethyl-4,5,6,7-tetrahydro-1H-indazol-3-yl)-5-fluoro-1H-indole-6-carbonyl)piperazin-1-yl)methyl)piperidin-1-yl)pyridin-3-yl)piperidine-2,6-dione]
4.4 | – | 81 | CC1(C)CCc2c(-c3cc4cc(F)c(C(=O)N5CCN(CC6CCN(c7ccc(C8CCC(=O)NC8=O)cc7)CC6)CC5)cc4[nH]3)n[nH]c2C1 (stereo not shown) [Compound 137, 3-(4-(4-((4-(2-(6,6-dimethyl-4,5,6,7-tetrahydro-1H-indazol-3-yl)-5-fluoro-1H-indole-6-carbonyl)piperazin-1-yl)methyl)piperidin-1-yl)phenyl)piperidine-2,6-dione]
0.076 | – | 83 | C[C@@]12Cc3[nH]nc(-c4cc5cc(F)c(C(=O)N6CCN(CC7CCN(c8ccc(C9CCC(=O)NC9=O)cc8)CC7)CC6)cc5[nH]4)c3C[C@@H]1C2(F)F (stereo partly drawn) [Compound 138, 3-(4-(4-((4-(2-((4aS,5aR)-5,5-difluoro-5a-methyl-1,4,4a,5,5a,6-hexahydrocyclopropa[f]indazol-3-yl)-5-fluoro-1H-indole-6-carbonyl)piperazin-1-yl)methyl)piperidin-1-yl)phenyl)piperidine-2,6-dione]
0.8 | – | 81 | C[C@@]12Cc3[nH]nc(-c4cc5ccc(C(=O)N6CCN(CC7CCN(c8ccc(C(=O)N[C@H]9CCC(=O)NC9=O)nc8)CC7)CC6)cc5[nH]4)c3C[C@@H]1C2(F)F [Compound 139, 5-(4-((4-(2-((4aS,5aR)-5,5-difluoro-5a-methyl-1,4,4a,5,5a,6-hexahydrocyclopropa[f]indazol-3-yl)-1H-indole-6-carbonyl)piperazin-1-yl)methyl)piperidin-1-yl)-N—((S)-2,6-dioxopiperidin-3-yl)picolinamide]
– | – | 84 | COC[C@@]1(C)CCc2c(-c3cc4ccc(C(=O)N5CCN(CC6CCN(c7ccc(C8CCC(=O)NC8=O)cc7)CC6)CC5)cc4[nH]3)n[nH]c2C1 (stereo partly shown) [Compound 140]
– | – | 86 | C[C@@]12Cc3[nH]nc(-c4cc5cc(C(=O)N6CCN(CC7(F)CCN(c8ccc(C9CCC(=O)NC9=O)cc8)CC7)CC6)ccc5[nH]4)c3C[C@@H]1C2(F)F (stereo partly shown) [Compound 141]
– | – | 80 | C[C@@]12Cc3[nH]nc(-c4cc5cc(C(=O)N6CCN(CC7CCN(c8ccc(C(=O)N[C@H]9CCC(=O)NC9=O)nc8)CC7)CC6)ccc5[nH]4)c3C[C@@H]1C2(F)F [Compound 142]
– | – | 81 | C[C@@]12Cc3[nH]nc(-c4cc5cc(C(=O)N6CCN(C[C@@H]7CCN(c8ccc(C9CCC(=O)NC9=O)cc8)C7)CC6)ccc5[nH]4)c3C[C@@H]1C2(F)F (stereo partly shown) [Compound 143]
– | – | 78 | C[C@@]12Cc3[nH]nc(-c4cc5cc(F)c(C(=O)N6CCN(CC7CCN(c8ccc(C(=O)N[C@H]9CCC(=O)NC9=O)nc8)CC7)CC6)cc5[nH]4)c3C[C@@H]1C2(F)F [Compound 144]
– | – | 75 | C[C@@]12Cc3[nH]nc(-c4cc5cc(F)c(C(=O)N6CCN(C[C@H]7CCN(c8ccc(C9CCC(=O)NC9=O)cc8)C7)CC6)cc5[nH]4)c3C[C@@H]1C2(F)F (stereo partly shown) [Compound 145]
– | – | 73 | C[C@@]12Cc3[nH]nc(-c4cc5cc(F)c(C(=O)N6CCN(C[C@@H]7CCN(c8ccc(C9CCC(=O)NC9=O)cc8)C7)CC6)cc5[nH]4)c3C[C@@H]1C2(F)F (stereo partly shown) [Compound 146]
– | – | 81 | C[C@@]12Cc3[nH]nc(-c4cc5cc(C(=O)N6CCN(C[C@H]7CCN(c8ccc(C9CCC(=O)NC9=O)cc8)C7)CC6)ccc5[nH]4)c3C[C@@H]1C2(F)F (stereo partly shown) [Compound 147]
– | – | 84 | C[C@@H]1CN(C(=O)c2ccc3cc(-c4n[nH]c5c4CCC(C)(C)C5)[nH]c3c2)CCN1CC1CCN(c2ccc(C3CCC(=O)NC3=O)cc2)CC1 (stereo partly shown) [Compound 156]
